Data from patent US9700637B2, “Reaction-based fluorescent probes for detecting zinc” (Massachusetts Institute of Technology, priority 2013, dated 2017).

Tests used:
HeLa cells = experiment: Live cell fluorescence imaging: localization, co-localization and uptake; assay type: cell-based; conditions: fluorescence microscopy, live HeLa cells (Table 1)
Description: FIG. 6 depicts live cell imaging of HeLa cells. 500 nM mitotracker Red was bath-applied along with 1 μM DA-ZP1-TPP for 30 min at 37° C. and 5% CO2. After exposure to 25 μM 1:2 zinc:pyrithione, fluorescent images were acquired and the co-localization of the two sensors was assessed. The calculated Pearson's correlation coefficient (r) was r=0.581±0.097 (n=9), which represents the average of 9 ROIs over three independent plates.
FIG. 14 depicts live cell imaging of HeLa cells. 1 μM Lysotracker Red was bath-applied along with 2 μM ZP1-TPP. The calculated Pearson's correlation coefficient (r) was r=0.45±0.15, which represents the average of 9 ROIs over three independent plates.
FIG. 24 depicts fluorescence images of live HeLa cells. HeLa cells were pretreated with a 1 μM solution of DA-ZP1-TPP in dye- and serum-free medium for 30 min (37° C., 5% CO2). […] The signal from MitoTracker Red (c) correlates well with the signal from the zinc-bound sensor (d). Pearson's r=0.64±0.1 (n=18).
FIG. 27 depicts deconvoluted fluorescence microscopy images of live HeLa cells pretreated with ZP1-R9 (5 μM) or DA-ZP1-R9 (2.5 μM) and the indicated organelle stain. Top, ZP1-R9: (a) Differential interference contrast (DIC) image, (b) signal from ZP1-R9, (c) signal from LysoTracker Red, (d) overlay of (b) and (c). Pearson's r=0.42±0.16 (n=8). Bottom, DA-ZP1-R9: (e) DIC, (f) signal from DA-ZP1-R9 after treatment with 25 μM ZnPT, (g) signal from Hoechst 33258, (h) overlay of (f) and (g). Scale bar=25 μm.
FIG. 29 depicts deconvoluted fluorescence microscopy images of live HeLa cells pretreated with 1 μM DA-ZP1-R9 and 100 nM Dextran Red. (a) Differential interference contrast (DIC), (b) signal from DA-ZP1-R9 after addition of 25 μM ZnPT (c) signal from Dextran Red, (d) overlay of (b) and (c). Pearson's r=0.55±0.12 (n=11). Scale bar=25 μm.
FIG. 31 depicts deconvoluted fluorescence microscopy images of ZP1-(Fxr)3 and DA-ZP1-r(Fxr)3 in live HeLa cells. Top, cells pretreated with medium containing 2.5 μM of ZP1-(Fxr)3: (a) Differential interference contrast (DIC) image, (b) signal from ZP1-(Fxr)3, (c) signal from Dextran Red, (d) overlay of (b) and (c). Pearson's r=0.71±0.07. Bottom, cells pretreated with 1 μM DA-ZP1-r(Fxr)3: (e) DIC, (f) signal from DA-ZP1-r(Fx)3 after treatment with 25 μM ZnPT, (g) signal from MitoTracker Red, (h) overlay of (f) and (g). Pearson's r=0.41±0.09. Scale bar=25 μm.
FIG. 33 depicts deconvoluted fluorescence microscopy images of DCF-r(Fxr)3 and DA-DCF-r(Fxr)3 in live HeLa cells. Top, cells pretreated with 5 μM DCF-r(Fxr)3 and 500 nM MitoTracker Red for 30 min. (a) differential contrast image (DIC), (b) signal from DCF-r(Fxr)3, (c) signal from MitoTracker Red. Bottom, cells pretreated with 5 μM DA-DCF-r(Fxr)3 and 500 nM MitoTracker Red for 30 min. (d) DIC, (e) signal from DCF-r(Fxr)3, (f) signal from MitoTracker Red. The global Pearson's r=0.57±0.16 (n=37). Cells with high levels of DA-DCF-r(Fxr)3 (e, red outline) have a higher Pearson's r=0.83±0.08 (n=10). Scale bar=25 μm.
We used HeLa cells as a model system to evaluate the ability of DA-ZP1-TPP to target mitochondria and respond to changes in intracellular zinc levels. […] Over a two-hour period, the fluorescence intensity from the sensor remained constant, implying that the acetylated form is stable against intracellular esterases (FIG. 24e). […] Addition of 100 μM TPEN attenuated the fluorescence signal by ˜2.4-fold (FIG. 24f). […]

[1] = Charge of predominate species in solution at physiological pH; assay type: physicochemical; conditions: physiological pH = 7.4
[2] = Octanol/aqueous buffer partition coefficient (modified shake-flask); assay type: physicochemical; conditions: octanol/water, buffered at pH 7 with 10 mM Tris
Text: To understand better the limitations of TPP in directing fluorophores to mitochondria, we prepared two additional TPP-derivatives, one based on 6-carboxyfluorescein (FL-TPP) and one on coumarin 343 (C343-TPP). […] To test this hypothesis, we conducted live cell fluorescence imaging experiments with FL-TPP. […] Not only did FL-TPP fail to accumulate in mitochondria, it was cell-impermeable under our imaging conditions. In contrast, the cationic C343-TPP strongly colocalized with MitoTracker Red in live HeLa cells (Pearson's r=0.72±0.02). To quantify the effect of hydrophobicity in mitochondrial-targeting, we measured the octanol/aqueous buffer partition coefficient (log P) for our TPP constructs and two MitoTracker dyes. We then tabulated the log P, charge of the predominate species in solution at physiological pH, and cellular localization for each dye (Table 1). […] Along with cationic charge, a minimum level of lipophilicity must be reached in order to evade endo/lysosomal sequestration and enable effective mitochondrial targeting.

SMILES	Localization (HeLa cells)	Charge of the predominate species in solution [1]	log P [2]
CC(=O)Oc1c(Cl)cc2c(c1CN(Cc1ccccn1)Cc1ccccn1)Oc1c(cc(Cl)c(OC(C)=O)c1CN(Cc1ccccn1)Cc1ccccn1)C21OC(=O)c2ccc(C(=O)NCC[P+](c3ccccc3)(c3ccccc3)c3ccccc3)cc21 [DA-ZP1-TPP]	Mitochondria	+1	0.74±0.18
O=C(NCC[P+](c1ccccc1)(c1ccccc1)c1ccccc1)c1ccc2c(c1)C1(OC2=O)c2cc(Cl)c(O)c(CN(Cc3ccccn3)Cc3ccccn3)c2Oc2c1cc(Cl)c(O)c2CN(Cc1ccccn1)Cc1ccccn1 [ZP1-TPP]	Endo/lysosome	Zwitterion	−0.11 ± 0.01
